Where two headings read alike, the source gives them in different places.
Experiments:
[1] = molecular target: EGFR L858R/C797S (Homo sapiens, UniProt P00533, C797S/L858R); test: Biochemical EGFR kinase assay (Lance Ultra TR-FRET), double mutant L858R/C797S
Procedure, shortened: (§1)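 Enzyme reactions lasted 1 hour at room temperature with test compounds between 0.003 and 10 μM, followed by 10 mM EDTA quench.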

[2] = molecular target: EGFR wildtype (WT) (Homo sapiens, UniProt P00533); test: Biochemical EGFR kinase assay (Lance Ultra TR-FRET), wildtype
Procedure, shortened: as §1

[3] = molecular target: EGFR L858R/T790M/C797S (Homo sapiens, UniProt P00533, C797S/L858R/T790M); test: Biochemical EGFR kinase assay (Lance Ultra TR-FRET), triple mutant L858R/T790M/C797S
Procedure, shortened: as §1

[4] = molecular target: EGFR del19/T790M/C797S (Homo sapiens, UniProt P00533, C797S/DEL746-750/T790M); test: Biochemical EGFR kinase assay (Lance Ultra TR-FRET), triple mutant del19/T790M/C797S
Procedure, shortened: as §1

[5] = molecular target: EGFR del19/C797S (Homo sapiens, UniProt P00533, C797S/DEL746-750); test: Biochemical EGFR kinase assay (Lance Ultra TR-FRET), double mutant del19/C797S
Procedure, shortened: as §1

[6] = IC50 L858R/C797S (nM) 100 μM ATP, 100 μM ATP
[7] = Km ATP, read-out: IC50 L858R/C797S (nM) Km ATP
[8] = IC50 WT (nM) 100 μM ATP, 100 μM ATP
[9] = Km ATP, read-out: IC50 WT (nM) Km ATP
[10] = IC50 L858R/T790M/C797S (nM) 100 μM ATP, 100 μM ATP
[11] = Km ATP, read-out: IC50 L858R/T790M/C797S (nM) Km ATP
[12] = IC50 del19/T790M/C797S (nM) 100 μM ATP, 100 μM ATP
[13] = Km ATP, read-out: IC50 del19/T790M/C797S (nM) Km ATP
[14] = IC50 del19/C797S (nM) 100 μM ATP, 100 μM ATP
[15] = Km ATP, read-out: IC50 del19/C797S (nM) Km ATP

Chain of EGFR del19/C797S (P00533 with tags, fused parts or gaps DEL746-750/C797S): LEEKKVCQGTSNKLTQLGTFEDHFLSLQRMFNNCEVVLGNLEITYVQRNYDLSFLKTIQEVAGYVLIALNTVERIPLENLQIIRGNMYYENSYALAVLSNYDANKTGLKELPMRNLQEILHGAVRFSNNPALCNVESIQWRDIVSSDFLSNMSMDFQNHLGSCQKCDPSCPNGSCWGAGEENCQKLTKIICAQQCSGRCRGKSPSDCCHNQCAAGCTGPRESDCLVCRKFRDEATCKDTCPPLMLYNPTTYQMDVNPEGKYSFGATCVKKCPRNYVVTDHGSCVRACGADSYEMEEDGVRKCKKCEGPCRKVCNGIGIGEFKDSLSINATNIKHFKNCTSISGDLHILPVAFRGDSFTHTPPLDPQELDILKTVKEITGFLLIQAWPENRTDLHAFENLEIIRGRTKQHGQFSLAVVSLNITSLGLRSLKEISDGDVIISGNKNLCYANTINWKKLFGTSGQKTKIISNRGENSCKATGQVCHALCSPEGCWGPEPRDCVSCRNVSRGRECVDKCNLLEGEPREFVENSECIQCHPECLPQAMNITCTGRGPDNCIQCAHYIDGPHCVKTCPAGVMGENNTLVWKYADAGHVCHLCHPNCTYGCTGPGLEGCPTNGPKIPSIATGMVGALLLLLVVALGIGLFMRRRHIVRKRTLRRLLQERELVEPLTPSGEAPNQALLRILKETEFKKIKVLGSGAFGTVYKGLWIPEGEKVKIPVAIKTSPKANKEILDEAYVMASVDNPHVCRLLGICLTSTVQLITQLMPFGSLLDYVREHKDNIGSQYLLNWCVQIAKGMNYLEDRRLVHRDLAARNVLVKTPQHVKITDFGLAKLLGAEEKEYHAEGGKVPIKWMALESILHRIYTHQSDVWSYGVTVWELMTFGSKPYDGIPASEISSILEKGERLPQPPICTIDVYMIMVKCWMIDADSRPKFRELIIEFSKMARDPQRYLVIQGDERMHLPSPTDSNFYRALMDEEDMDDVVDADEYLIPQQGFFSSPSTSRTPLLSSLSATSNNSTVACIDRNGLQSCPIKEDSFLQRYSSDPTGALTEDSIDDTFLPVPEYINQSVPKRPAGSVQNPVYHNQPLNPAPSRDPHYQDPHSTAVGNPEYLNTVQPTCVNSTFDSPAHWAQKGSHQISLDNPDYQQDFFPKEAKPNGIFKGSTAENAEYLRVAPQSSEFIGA
Chain of EGFR L858R/C797S (P00533 25-1210 C797S/L858R): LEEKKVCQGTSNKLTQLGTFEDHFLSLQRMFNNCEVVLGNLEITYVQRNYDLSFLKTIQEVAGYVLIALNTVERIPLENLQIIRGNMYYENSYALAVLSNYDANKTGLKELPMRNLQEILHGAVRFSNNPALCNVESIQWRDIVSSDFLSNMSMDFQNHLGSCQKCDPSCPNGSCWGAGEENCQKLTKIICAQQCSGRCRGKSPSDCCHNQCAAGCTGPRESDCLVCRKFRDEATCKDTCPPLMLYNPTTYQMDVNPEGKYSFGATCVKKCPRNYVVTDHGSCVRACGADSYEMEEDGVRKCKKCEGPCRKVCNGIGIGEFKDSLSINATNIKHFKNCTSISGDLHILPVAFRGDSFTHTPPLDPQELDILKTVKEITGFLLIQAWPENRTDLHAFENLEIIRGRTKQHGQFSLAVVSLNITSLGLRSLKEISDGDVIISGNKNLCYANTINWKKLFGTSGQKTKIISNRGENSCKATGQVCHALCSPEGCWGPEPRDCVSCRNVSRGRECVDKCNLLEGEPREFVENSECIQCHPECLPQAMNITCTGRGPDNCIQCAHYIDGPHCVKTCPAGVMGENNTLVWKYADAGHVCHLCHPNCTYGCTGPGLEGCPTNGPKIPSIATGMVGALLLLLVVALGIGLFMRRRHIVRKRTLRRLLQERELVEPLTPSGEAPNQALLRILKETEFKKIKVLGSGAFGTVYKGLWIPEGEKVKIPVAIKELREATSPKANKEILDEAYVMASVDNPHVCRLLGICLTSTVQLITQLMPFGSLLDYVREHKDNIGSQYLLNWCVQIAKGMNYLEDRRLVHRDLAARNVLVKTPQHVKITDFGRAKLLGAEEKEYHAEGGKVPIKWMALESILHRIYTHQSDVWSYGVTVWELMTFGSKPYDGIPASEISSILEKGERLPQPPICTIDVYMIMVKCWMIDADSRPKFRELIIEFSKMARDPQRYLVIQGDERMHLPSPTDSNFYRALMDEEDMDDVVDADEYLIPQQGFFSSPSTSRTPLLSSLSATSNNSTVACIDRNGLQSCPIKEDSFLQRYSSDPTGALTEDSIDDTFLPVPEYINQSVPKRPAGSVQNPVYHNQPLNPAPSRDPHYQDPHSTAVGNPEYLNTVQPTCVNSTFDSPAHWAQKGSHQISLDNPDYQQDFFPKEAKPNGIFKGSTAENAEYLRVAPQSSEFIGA
Chain of EGFR del19/T790M/C797S (P00533 with tags, fused parts or gaps DEL746-750/T790M/C797S): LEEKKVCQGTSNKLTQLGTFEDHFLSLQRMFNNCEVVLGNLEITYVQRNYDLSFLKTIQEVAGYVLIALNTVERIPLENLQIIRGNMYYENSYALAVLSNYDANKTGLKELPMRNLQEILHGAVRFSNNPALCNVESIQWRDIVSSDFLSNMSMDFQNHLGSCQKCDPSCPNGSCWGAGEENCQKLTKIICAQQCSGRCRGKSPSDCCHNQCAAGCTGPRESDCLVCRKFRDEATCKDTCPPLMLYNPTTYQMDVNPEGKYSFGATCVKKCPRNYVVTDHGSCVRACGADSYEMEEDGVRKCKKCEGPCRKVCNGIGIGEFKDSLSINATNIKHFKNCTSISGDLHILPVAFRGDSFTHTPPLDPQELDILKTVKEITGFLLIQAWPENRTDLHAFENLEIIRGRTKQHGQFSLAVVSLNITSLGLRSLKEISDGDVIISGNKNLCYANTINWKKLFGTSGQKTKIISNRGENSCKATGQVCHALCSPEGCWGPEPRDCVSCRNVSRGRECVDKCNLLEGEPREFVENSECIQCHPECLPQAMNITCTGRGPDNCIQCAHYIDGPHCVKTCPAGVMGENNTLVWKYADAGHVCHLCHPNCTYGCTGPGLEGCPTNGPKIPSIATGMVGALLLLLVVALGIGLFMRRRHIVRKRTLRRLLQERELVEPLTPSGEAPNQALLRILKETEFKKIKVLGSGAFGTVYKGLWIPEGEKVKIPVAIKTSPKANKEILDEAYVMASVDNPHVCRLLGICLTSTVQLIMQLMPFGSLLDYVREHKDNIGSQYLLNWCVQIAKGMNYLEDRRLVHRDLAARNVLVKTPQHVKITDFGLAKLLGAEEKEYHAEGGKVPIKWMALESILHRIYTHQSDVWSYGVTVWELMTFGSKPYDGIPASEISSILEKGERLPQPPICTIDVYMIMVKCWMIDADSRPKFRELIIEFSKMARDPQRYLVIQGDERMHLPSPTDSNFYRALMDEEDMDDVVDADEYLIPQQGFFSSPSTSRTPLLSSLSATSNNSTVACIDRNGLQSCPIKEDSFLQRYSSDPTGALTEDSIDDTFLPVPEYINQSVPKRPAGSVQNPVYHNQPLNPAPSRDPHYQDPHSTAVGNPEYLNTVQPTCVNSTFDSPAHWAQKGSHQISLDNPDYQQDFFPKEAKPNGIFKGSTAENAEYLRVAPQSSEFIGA
Chain of EGFR L858R/T790M/C797S (P00533 25-1210 T790M/C797S/L858R): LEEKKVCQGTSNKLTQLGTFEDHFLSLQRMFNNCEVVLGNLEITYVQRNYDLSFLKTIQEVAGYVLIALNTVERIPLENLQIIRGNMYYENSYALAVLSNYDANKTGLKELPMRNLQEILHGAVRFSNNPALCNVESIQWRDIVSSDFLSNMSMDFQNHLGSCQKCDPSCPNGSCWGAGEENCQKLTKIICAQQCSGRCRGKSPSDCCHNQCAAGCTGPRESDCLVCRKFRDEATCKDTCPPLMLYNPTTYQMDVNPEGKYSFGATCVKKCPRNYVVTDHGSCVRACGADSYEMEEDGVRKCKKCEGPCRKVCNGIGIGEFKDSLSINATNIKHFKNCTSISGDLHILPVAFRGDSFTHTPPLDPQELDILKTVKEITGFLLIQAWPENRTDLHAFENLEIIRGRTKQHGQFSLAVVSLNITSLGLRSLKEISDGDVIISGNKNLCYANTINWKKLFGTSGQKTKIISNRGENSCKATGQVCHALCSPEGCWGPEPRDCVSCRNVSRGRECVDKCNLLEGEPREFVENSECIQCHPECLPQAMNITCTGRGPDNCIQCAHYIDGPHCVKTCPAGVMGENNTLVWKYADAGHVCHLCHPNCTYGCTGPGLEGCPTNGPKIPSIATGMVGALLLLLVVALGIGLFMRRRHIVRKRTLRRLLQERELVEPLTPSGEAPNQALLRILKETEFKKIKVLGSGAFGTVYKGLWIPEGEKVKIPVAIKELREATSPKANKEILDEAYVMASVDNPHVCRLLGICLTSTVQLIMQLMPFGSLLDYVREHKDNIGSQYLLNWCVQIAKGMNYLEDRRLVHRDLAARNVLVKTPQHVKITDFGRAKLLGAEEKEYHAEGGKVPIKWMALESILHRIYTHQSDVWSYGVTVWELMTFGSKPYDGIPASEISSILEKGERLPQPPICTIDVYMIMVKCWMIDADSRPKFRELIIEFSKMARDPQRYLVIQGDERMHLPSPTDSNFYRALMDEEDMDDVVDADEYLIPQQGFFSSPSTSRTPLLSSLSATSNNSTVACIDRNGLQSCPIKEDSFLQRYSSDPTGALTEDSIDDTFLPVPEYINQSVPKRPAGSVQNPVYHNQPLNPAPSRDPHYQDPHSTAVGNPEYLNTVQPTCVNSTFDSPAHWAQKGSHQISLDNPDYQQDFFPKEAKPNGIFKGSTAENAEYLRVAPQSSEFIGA

Row | Compound | IC50 [1, 6] [nM] | IC50 [1, 7] [nM] | IC50 [2, 8] [nM] | IC50 [2, 9] [nM] | IC50 [3, 10] [nM] | IC50 [3, 11] [nM] | IC50 [4, 12] [nM] | IC50 [4, 13] [nM] | IC50 [5, 14] [nM] | IC50 [5, 15] [nM]
1 | O=S(=O)(C1CC1)n1cc(-c2nccc(Nc3cc(NC4CCCC(NCC(F)F)C4)c(-c4ccn(C(F)F)n4)cn3)n2)cn1 (stereo not shown) [Example 191, N^2-(2-(1-(Cyclopropylsulfonyl)-1H-pyrazol-4-yl)pyrimidin-4-yl)-N^4-(3-((2,2-difluoroethyl)amino)cyclohexyl)-5-(1-(difluoromethyl)-1H-pyrazol-3-yl)pyridine-2,4-diamine] | 1400 | – | > 10000 | – | 2.4 | – | 1.7 | – | 35.5 | –
2 | CNC[C@H]1CC[C@H](CNc2cc(Nc3ccnc(-c4cnn(S(=O)(=O)C5CC5)c4)n3)ncc2-c2ccn(C(F)F)n2)CC1 [Example 192, N^2-(2-(1-(Cyclopropylsulfonyl)-1H-pyrazol-4-yl)pyrimidin-4-yl)-5-(1-(difluoromethyl)-1H-pyrazol-3-yl)-N^4-(((1r,4r)-4-((methylamino)methyl)cyclohexyl)methyl)pyridine-2,4-diamine] | 3.7 | 0.4 | 384 | 1.1 | 0.2 | 0.1 | 0.4 | 0.2 | 0.7 | 0.3
3 | CN[C@H]1CC[C@H](CNc2cc(Nc3ccnc(-c4cnn(S(=O)(=O)C5CC5)c4)n3)ncc2-c2ccn(C(F)F)n2)CC1 [Example 193, N^2-(2-(1-(Cyclopropylsulfonyl)-1H-pyrazol-4-yl)pyrimidin-4-yl)-5-(1-(difluoromethyl)-1H-pyrazol-3-yl)-N^4-(((1r,4r)-4-(methylamino)cyclohexyl)methyl)pyridine-2,4-diamine] | 7.2 | 1 | 2050 | 4 | 0.1 | 0.1 | 0.2 | 0.2 | 0.7 | 0.3
4 | O=S(=O)(C1CC1)n1cc(-c2nccc(Nc3cc(NC4CCCC(NCCF)C4)c(-c4ccn(C(F)F)n4)cn3)n2)cn1 (stereo not shown) [Example 194, N^2-(2-(1-(Cyclopropylsulfonyl)-1H-pyrazol-4-yl)pyrimidin-4-yl)-5-(1-(difluoromethyl)-1H-pyrazol-3-yl)-N^4-(3-((2-fluoroethyl)amino)cyclohexyl)pyridine-2,4-diamine] | 32.1 | 5.8 | > 10000 | 19.9 | 0.6 | 0.1 | 0.2 | 0.3 | 7.5 | 4.4
5 | CN(C)C[C@H]1CC[C@@H](Nc2cc(Nc3ccnc(-c4cnn(S(=O)(=O)C5CC5)c4)n3)ncc2-c2ccn(C(F)F)n2)CC1 [Example 195, N^2-(2-(1-(Cyclopropylsulfonyl)-1H-pyrazol-4-yl)pyrimidin-4-yl)-5-(1-(difluoromethyl)-1H-pyrazol-3-yl)-N^4-((1s,4s)-4-((dimethylamino)methyl)cyclohexyl)pyridine-2,4-diamine] | 0.8 | 0.1 | 145 | 0.3 | 0.1 | 0.04 | 0.1 | 0.1 | 0.3 | 0.2
6 | O=S(=O)(C1CC1)n1cc(-c2nccc(Nc3cc(N[C@H]4CC[C@H](CO)CC4)c(-c4ccn(C(F)F)n4)cn3)n2)cn1 [Example 198, ((1r,4r)-4-((2-((2-(1-(Cyclopropylsulfonyl)-1H-pyrazol-4-yl)pyrimidin-4-yl)amino)-5-(1-(difluoromethyl)-1H-pyrazol-3-yl)pyridin-4-yl)amino)cyclohexyl)methanol] | 3040 | 4.2 | > 10000 | 84.7 | 3.3 | 0.1 | 0.3 | – | 2.2 | 0.7
7 | O=S(=O)(C1CC1)n1cc(-c2nccc(Nc3cc(N[C@H]4CC[C@](O)(C(F)F)CC4)c(-c4ccn(C(F)F)n4)cn3)n2)cn1 [Example 200, (1s,4s)-4-((2-((2-(1-(Cyclopropylsulfonyl)-1H-pyrazol-4-yl)pyrimidin-4-yl)amino)-5-(1-(difluoromethyl)-1H-pyrazol-3-yl)pyridin-4-yl)amino)-1-(difluoromethyl)cyclohexan-1-ol] | 293 | 15.4 | > 10000 | 2850 | 2.1 | 0.4 | 1 | 0.6 | – | 13.5
8 | CN(C)C(=O)[C@H]1CC[C@@H](Nc2cc(Nc3ccnc(-c4cnn(S(=O)(=O)C5CC5)c4)n3)ncc2-c2ccn(C(F)F)n2)CC1 [Example 201, (1s,4s)-4-((2-((2-(1-(Cyclopropylsulfonyl)-1H-pyrazol-4-yl)pyrimidin-4-yl)amino)-5-(1-(difluoromethyl)-1H-pyrazol-3-yl)pyridin-4-yl)amino)-N,N-dimethylcyclohexane-1-carboxamide] | 2.9 | 0.7 | > 10000 | – | 0.5 | 0.3 | 0.5 | 0.8 | 2.1 | 1.1
9 | O=S(=O)(C1CC1)n1cc(-c2nccc(Nc3cc(N[C@H]4CCC[C@H](CO)C4)c(-c4ccn(C(F)F)n4)cn3)n2)cn1 [Example 202, ((1S,3S)-3-((2-((2-(1-(Cyclopropylsulfonyl)-1H-pyrazol-4-yl)pyrimidin-4-yl)amino)-5-(1-(difluoromethyl)-1H-pyrazol-3-yl)pyridin-4-yl)amino)cyclohexyl)methanol] | 17.8 | 2.7 | > 10000 | 10.6 | 1.4 | 0.5 | 1.3 | 1.1 | 6.6 | 1.4

Now from value to compound:

Row | IC50 [1, 6] [nM] | IC50 [1, 7] [nM] | IC50 [2, 8] [nM] | IC50 [2, 9] [nM] | IC50 [3, 10] [nM] | IC50 [3, 11] [nM] | IC50 [4, 12] [nM] | IC50 [4, 13] [nM] | IC50 [5, 14] [nM] | IC50 [5, 15] [nM] | Compound
10 | 7.8 | 1.1 | > 10000 | 6.1 | 0.2 | 0.1 | 0.2 | 0.3 | 0.3 | 0.3 | O=S(=O)(C1CC1)n1cc(-c2nccc(Nc3cc(N[C@H]4CC[C@](O)(CO)CC4)c(-c4ccn(C(F)F)n4)cn3)n2)cn1 [Example 188, (1s,4s)-4-((2-((2-(1-(Cyclopropylsulfonyl)-1H-pyrazol-4-yl)pyrimidin-4-yl)amino)-5-(1-(difluoromethyl)-1H-pyrazol-3-yl)pyridin-4-yl)amino)-1-(hydroxymethyl)cyclohexan-1-ol]
11 | 27.1 | 3.1 | > 10000 | 20.1 | 0.2 | 0.3 | 0.4 | 0.5 | 1.8 | 1.2 | O=S(=O)(C1CC1)n1cc(-c2nccc(Nc3cc(NC[C@H]4C[C@H](CO)C4)c(-c4ccn(C(F)F)n4)cn3)n2)cn1 [Example 189, ((1r,3r)-3-(((2-((2-(1-(Cyclopropylsulfonyl)-1H-pyrazol-4-yl)pyrimidin-4-yl)amino)-5-(1-(difluoromethyl)-1H-pyrazol-3-yl)pyridin-4-yl)amino)methyl)cyclobutyl)methanol]
12 | 119 | 6.7 | > 10000 | 109 | 1.8 | 0.6 | 1.2 | 0.9 | 11.9 | 9.1 | O=S(=O)(C1CC1)n1cc(-c2nccc(Nc3cc(NC4CCC(F)(CO)CC4)c(-c4ccn(C(F)F)n4)cn3)n2)cn1 (stereo not shown) [Example 190, (4-((2-((2-(1-(Cyclopropylsulfonyl)-1H-pyrazol-4-yl)pyrimidin-4-yl)amino)-5-(1-(difluoromethyl)-1H-pyrazol-3-yl)pyridin-4-yl)amino)-1-fluorocyclohexyl)methanol]
13 | 9100 | – | > 10000 | – | 13.3 | – | 3.7 | – | 131 | – | O=S(=O)(C1CC1)n1cc(-c2nccc(Nc3cc(N[C@H]4CC[C@H](CO)OC4)c(-c4ccn(C(F)F)n4)cn3)n2)cn1 [Example 196, ((2R,5S)-5-((2-((2-(1-(Cyclopropylsulfonyl)-1H-pyrazol-4-yl)pyrimidin-4-yl)amino)-5-(1-(difluoromethyl)-1H-pyrazol-3-yl)pyridin-4-yl)amino)tetrahydro-2H-pyran-2-yl)methanol]
14 | 70 | 2.1 | > 10000 | 7.9 | 0.3 | 0.1 | 0.2 | 0.1 | 2.2 | 1.1 | O=S(=O)(C1CC1)n1cc(-c2nccc(Nc3cc(NCC4(CO)COC4)c(-c4ccn(C(F)F)n4)cn3)n2)cn1 [Example 197, (3-(((2-((2-(1-(Cyclopropylsulfonyl)-1H-pyrazol-4-yl)pyrimidin-4-yl)amino)-5-(1-(difluoromethyl)-1H-pyrazol-3-yl)pyridin-4-yl)amino)methyl)oxetan-3-yl)methanol]
